Paper PMC11207005 (Pharmaceuticals, 2024)

Assays:
[1] = Dissolution test, USP apparatus type II; type: physicochemical; details: pH 6.8 phosphate buffer, 37 °C, 100 rpm, powder
Protocol: In the following circumstances, the dissolution test was carried out on the prepared ALB capsules and the complex-containing ones. The dissolution medium was a USP type II (paddle type) and 900 mL of pH 6.8 phosphate buffer at 37 ± 1 °C with the rotation speed fixed at […]. At selected time points (10, 20, …, 80), 2 mL samples of dissolution medium were withdrawn and replaced with a fresh buffer. Times start from 0-time points for powder dissolution and end after 20 min (average time to dissolve the capsule shell).

[2] = Phase solubility study: solubility of pure ALB in distilled water; type: physicochemical; details: thermodynamic from solid, 25 °C
Protocol: (§1) Phase solubility tests were conducted in distilled water following the procedure outlined in the Higuchi and Connors technique. […] Samples were placed in the water bath (25 °C/2 days/50 rpm) to attain equilibrium. Samples of 3 mL were withdrawn and filtered through a 0.45 μm nylon membrane filter. The filtrate (1 mL) was diluted appropriately with methanol, stirred for one hour (200 rpm), and assayed at 340 nm. The concentrations used were 2, 4, 10, 15, and 20 mmol/L for both βCD and HPβCD.

[3] = Phase solubility study of ALB with βCD (stability constant); type: physicochemical; details: distilled water, 25 °C
Protocol: as §1

[4] = Phase solubility study of ALB with HPβCD (stability constant); type: physicochemical; details: distilled water, 25 °C
Protocol: as §1

[5] = Oral pharmacokinetic (bioavailability) study in rats, non-compartmental analysis; type: in vivo, Wistar rats
Protocol: The Shimadzu SCL-10A VP system control (Kyoto, Japan) has a mass detector (LCMS2010A) from Shimadzu Kylimatu, Japan. The mobile phase comprised acetonitrile–deionized water–formic acid (70: 30: 0.1%, v/v). Rosuvastatin was utilized as an internal standard. The injection volume was 10 µL; the flow rate was […]; the autosampler temperature was 5 °C; the column temperature was 25 °C; and the column was ACE (C18; 4.6 × […]) with particle size of 5.0 µm.
The samples were prepared for injection into the instrument as follows: Samples (including known/unknown spiked plasma and samples) were obtained from the deep freezer, followed by a period of room-temperature thaw. Later, a plasma pipet was performed on the samples after they were shaken to form a mixture. A total of 270 µL of blank plasma per 300 µL of spiked plasma were pipetted into the labeled test tubes, and 30 µL of serial solutions into blank plasma were added. Then, 50 µL of rosuvastatin (IS) working solutions were added. Then, the samples were vortexed for roughly 10 s. A total of 700 µL of acetonitrile (precipitation solutions) were added and vortexed again for 2.0 min, then centrifugated at 4000 rpm for roughly five min at room temperature. After that, 200 µL from the supernatant was transferred to the HPLC vials inserts. Finally, the vials were capped and transferred into the autosampler racks.
The study protocol was validated and approved by the Institutional Review Board (IRB) of Applied Science University (ASU) (Decision no. 6/2021–2022). The preclinical investigation was conducted at the Animal House of ASU as a combined project. A total of 12 Wistar rats were prepared for this study and divided into two groups, with each group containing 6 rats. The average weight of the animals was 200 g ± 15 g, aged four weeks, and they were all males.
The animals for the experiment were prepared by depriving them of food (for about twelve hours) apart from full access to water, and they were identified by a sign mark on the tail. After the dosing of ALB, samples were retrieved from the rat’s tail. After, the tail was warmed for half a minute via a hot pad before every sampling period. […] The samples were kept in heparinized Eppendorf tubes, centrifugated to obtain the plasma, frozen at −25 °C, and kept until the time of analysis.
The plasma level–time profile of ALB was obtained using Microsoft Excel. Two profiles, F1 in G1 and F2 in G2, were plotted. […] ANOVA was applied to detect significant parameter differences using a […].

[6] = cited from earlier work
[7] = cited from earlier work; remark: listed apart in the source
[8] = male, Wistar, rat, plasma, po, 15 mg/kg

CCc1cc2c(cc1N1CCC(N3CCOCC3)CC1)C(C)(C)c1[nH]c3cc(C#N)ccc3c1C2=O [ALB, Alectinib]
T30 (amount of ALB released in 30 min) [1]: 18% | solubility at 2 days [2]: 2 µM | solubility at 2 days ([2]; approximate): ~1 µg/mL | Ks (stability constant) [3]: 500 M⁻¹ | Ks (stability constant) [4]: 1836 M⁻¹ | Plasma concentration of ALB at 72 h ([5]; Wistar rats, F1 and F2, LLOQ 15 ng/mL): below the LLOQ | AUC(0-inf) [5, 8]: 7.28 ± 0.306 µg·h/mL | Cmax [5, 8]: 0.24 ± 0.0269 µg/mL | Tmax [5, 8]: 7.33 ± 1.03 h | AUC(0-t) ([5]; male, Wistar, rat, plasma, po, 15 mg/kg, read-out: AUC0-48 (AUC-48)): 5.95 ± 0.265 µg·h/mL | k el ([5]; male, Wistar, rat, plasma, po, 15 mg/kg, read-out: Kel (elimination rate constant) (converted)): 1.25e-05 s⁻¹ | Oral bioavailability [6]: around 37% | log partition coefficient (log p) [7]: 5.2
